Source: patent publication US7897567B2, “Methods of protecting against radiation damage using alpha thymosin” (SciClone Pharmaceuticals, Inc., priority 2002, dated 2011)
Ends that are not written are not given here.

Experiments:
[1] = subcutaneously injected; cited from earlier work
[2] = system: clonogenic cells of the small intestine (crypts); assay: Small intestine crypt survival after 13Gy X-irradiation in BDF1 mice; type: in vivo
Excerpt: Radiation exposure may damage or kill cells. Therefore, stem and clonogenic cells of the small intestine were exposed to radiation, treated and monitored to observe the effectiveness of the treatment. There are thought to be between four and sixteen actual stem cells in each crypt of the small intestine. There are also a further reserve of clonogneic cells which are capable of regenerating the crypt when all the actual stem cells have been killed. The survival of these clonogenic cells is therefore key to the survival of the crypt and the restoration of an intact epithelial lining following cytotoxic injury (only one clonogenic cell need survive to ensure the survival of the crypt, and therefore maintenance of an intact epithelium). Growth factors and related molecules can be used to manipulate the sensitivity of these cells to cytotoxic agents, and thereby reduce the severity of gastrointestinal and oral mucositis. Factors given prior to a cytotoxic insult may increase clonogenic cell number (thereby increasing the probability of clonogen survival) or act to arrest the cell cycle in such cells (thereby making them more resistant to damage or death). […] A combination of both protocols could give maximum protection to the epithelium.
36 adult male BDF1 mice (aged 10-12 weeks) were used. The animals were divided into 6 groups and were treated as follows: (1) Control mice, (2) Irradiated, untreated mice, (3) Mice receiving 3 mg/kg thymosin ip 3 hrs prior to irradiation, (4) Mice receiving vehicle ip 3 hrs prior to irradiation, (5) Mice receiving 3 mg/kg thymosin ip 3 times daily for 3 days prior to irradiation, (6) Mice receiving vehicle ip 3 times daily for 3 days prior to irradiation.
The injections were given at 9:00 (3 times treatment) or 12:00 (1 time treatment). At 3:00 on day 3, intestinal damage was induced using a single dose of 13Gy (Gray) X-irradiation.
4 days after irradiation the animals were culled. The small intestine was removed and fixed in Carnoy's fixative prior to processing for histological analysis. 3 um sections were cut and stained with haematoxylin and eosin. Surviving crypts with one or more clonogenic cells are clearly visible in the irradiated sections. […]
For each animal ten intestinal circumferences were analyzed (60 per group). […] The number of surviving crypts per circumference were scored and the average per group determined. Only crypts containing 10 or more strongly H&E stained cells (excluding Paneth cells) and only intact circumference not containing Peyers patches were scored (Peyers patches influence both the number of crypts in a normal circumference and the ability of a crypt to survive insult).
The average crypt width (measured at its widest point) was also measured in order to correct for scoring errors due to crypt size difference. […]

## Thymosin alpha 1 (SDAAVDTSSEITTKDLKEKKEVVEEAEN; not fully specified (N-terminus); UniProt P06454 2-29, looked up) [28-amino acid thymic peptide with immunomodulatory properties, homologous to a natural product isolated from thymosin fraction 5 of calf thymus]
[1]
  plasma half-life: about two
[2]; 3 mg/kg ip, single or triple dose, BDF1 mice, 13Gy X-irradiation
  survival of treatment and adverse effects: no obvious adverse effects
[2]; triple dose thymosin vs triple dose vehicle control
  increase in surviving crypts: 77%
[2]; triple dose thymosin vs triple dose vehicle control (5.3 vs 3)
  protection factor: 1.77
[2]; triple dose: 3 mg/kg ip 3 times daily for 3 days prior to 13Gy X-irradiation, BDF1 mice, 4 days after irradiation
  corrected crypt survival (corrected number of crypts/circumference): 5.3 crypts/circumference
